{"source": "patent US10556860B2", "about": "“hTERT modulators and methods of use” (Arizona Board of Regents on Behalf of the University of …, priority 2015, dated 2020)", "system": "hTERT mRNA in melanoma cells carrying WT, G124A, G124/125A, G138/139A and G146A", "assay": "qPCR of hTERT mRNA in melanoma cells (WT and mutants)", "assay_type": "cell-based, human", "conditions": "WT and all mutant melanoma cells, 72 h, 1 μM", "procedure": "Cell cultures. MCF7 and melanoma (UACC 383) cells were cultured in media of RPMI-1640 with 10% FBS and 1% penicillin/streptomycin. For melanoma cells UACC 2512, UACC 3090, UACC 1729, and UACC 2528, 20% FBS was included in the RPMI media instead of 10% FBS. Cells were incubated at 37° C. with 5% CO2.\nqPCR. MCF7 and melanoma cells were treated with GTC365 and BRACO-19 for 72 h. Total RNA was extracted using an RNeasy mini-prep kit (Qiagen) and quantitated by measuring absorbance at 260 nm. cDNA was synthesized using a Takara PrimeScript™ RT Reagent Kit with gDNA eraser and then used as a template for qPCR. The qPCR was performed using Kapa Probe Fast qPCR Master Mix with ABI Taqman probes of hTERT (Hs00972656_m1), BCL2 (HS00608023_m1, FAM-labeled) or MYC (Hs00153408_m1), and GAPDH (Hs02758991_g1, VIC-labeled). The Ct values were measured by running Rotor-Gene Q, and the relative quantity of hTERT, BCL2, and MYC mRNA was obtained compared to GAPDH as an internal control.\nTo determine the cellular effect of GTC365 on proliferation as well as suppression of the activation of hTERT by G124A, G124/125A, G138/139A, and G146A mutants, melanoma cell lines were used alongside a WT cell line. All mutants increased the mRNA level of hTERT, compared to WT melanoma cells, in the 6.6-34-fold range. […]", "data": [{"smiles": "N=C(N)NCCCS(=O)(=O)Nc1ccc(Nc2c3ccccc3nc3cc([N+](=O)[O-])ccc23)cc1", "note": "[GTC365]", "values": [{"measurement": "decrease in the mRNA level of hTERT", "result": 25, "unit": "%"}]}]}
